According to patent US6410552B1, “Benzoether and related compositions and methods” (Ortho-McNeil Pharmaceutical, Inc., priority 2000, dated 2002):

Each compound was assayed against T1, calcium channel (Oryctolagus cuniculus, UniProt P15381) (assay: Assay for Inhibition of Nitrendipine Binding (3H-nitrendipine, heart membranes)). Conditions: displacement of 3H-nitrendipine (0.05-0.50 nM) from rabbit heart membranes, 90 minutes at 4° C.
T1 construct: from tissue; host or cells: rabbit heart membranes
Procedure: Female, New Zealand white rabbits (1-2 kg) are sacrificed by cervical dislocation, and the heart is immediately removed, cleaned and chopped into small pieces. The tissue is homogenized in 5×times volume of 0.05M Hepes buffer, pH 7.4. The homogenate is centrifuged at 4000 g for 10 minutes, and the supernatant is re-centrifuged at 42,000×g for 90 minutes. The resulting membrane pellet is resuspended (0.7 ml/g weight) in 0.05M Hepes, pH 7.4 and stored at […] until used. Each tube of the binding assay contains ^3H-nitrendipine (0.05-0.50 nM), buffer, membranes (0.10 ml), and test compound in a total volume of 1.0 ml. After 90 minutes at 4° C., the bound nitrendipine is separated from the unbound by filtration on Whatman GF/C filters. After rinsing, the filters are dried and counted in a liquid scintillation counter.
Non-specific binding of ^3H-nitrendipine (that amount bound in the presence of excess unlabelled nitrendipine) is subtracted from the total bound to obtain specifically bound radiolabeled nitrendipine. The amount of specifically bound nitrendipine in the presence of a test compound is compared to that amount bound in the absence of a compound. A percent displacement (or inhibition) can then be calculated.

T1 sequence (P15381 whole entry, other chains not shown): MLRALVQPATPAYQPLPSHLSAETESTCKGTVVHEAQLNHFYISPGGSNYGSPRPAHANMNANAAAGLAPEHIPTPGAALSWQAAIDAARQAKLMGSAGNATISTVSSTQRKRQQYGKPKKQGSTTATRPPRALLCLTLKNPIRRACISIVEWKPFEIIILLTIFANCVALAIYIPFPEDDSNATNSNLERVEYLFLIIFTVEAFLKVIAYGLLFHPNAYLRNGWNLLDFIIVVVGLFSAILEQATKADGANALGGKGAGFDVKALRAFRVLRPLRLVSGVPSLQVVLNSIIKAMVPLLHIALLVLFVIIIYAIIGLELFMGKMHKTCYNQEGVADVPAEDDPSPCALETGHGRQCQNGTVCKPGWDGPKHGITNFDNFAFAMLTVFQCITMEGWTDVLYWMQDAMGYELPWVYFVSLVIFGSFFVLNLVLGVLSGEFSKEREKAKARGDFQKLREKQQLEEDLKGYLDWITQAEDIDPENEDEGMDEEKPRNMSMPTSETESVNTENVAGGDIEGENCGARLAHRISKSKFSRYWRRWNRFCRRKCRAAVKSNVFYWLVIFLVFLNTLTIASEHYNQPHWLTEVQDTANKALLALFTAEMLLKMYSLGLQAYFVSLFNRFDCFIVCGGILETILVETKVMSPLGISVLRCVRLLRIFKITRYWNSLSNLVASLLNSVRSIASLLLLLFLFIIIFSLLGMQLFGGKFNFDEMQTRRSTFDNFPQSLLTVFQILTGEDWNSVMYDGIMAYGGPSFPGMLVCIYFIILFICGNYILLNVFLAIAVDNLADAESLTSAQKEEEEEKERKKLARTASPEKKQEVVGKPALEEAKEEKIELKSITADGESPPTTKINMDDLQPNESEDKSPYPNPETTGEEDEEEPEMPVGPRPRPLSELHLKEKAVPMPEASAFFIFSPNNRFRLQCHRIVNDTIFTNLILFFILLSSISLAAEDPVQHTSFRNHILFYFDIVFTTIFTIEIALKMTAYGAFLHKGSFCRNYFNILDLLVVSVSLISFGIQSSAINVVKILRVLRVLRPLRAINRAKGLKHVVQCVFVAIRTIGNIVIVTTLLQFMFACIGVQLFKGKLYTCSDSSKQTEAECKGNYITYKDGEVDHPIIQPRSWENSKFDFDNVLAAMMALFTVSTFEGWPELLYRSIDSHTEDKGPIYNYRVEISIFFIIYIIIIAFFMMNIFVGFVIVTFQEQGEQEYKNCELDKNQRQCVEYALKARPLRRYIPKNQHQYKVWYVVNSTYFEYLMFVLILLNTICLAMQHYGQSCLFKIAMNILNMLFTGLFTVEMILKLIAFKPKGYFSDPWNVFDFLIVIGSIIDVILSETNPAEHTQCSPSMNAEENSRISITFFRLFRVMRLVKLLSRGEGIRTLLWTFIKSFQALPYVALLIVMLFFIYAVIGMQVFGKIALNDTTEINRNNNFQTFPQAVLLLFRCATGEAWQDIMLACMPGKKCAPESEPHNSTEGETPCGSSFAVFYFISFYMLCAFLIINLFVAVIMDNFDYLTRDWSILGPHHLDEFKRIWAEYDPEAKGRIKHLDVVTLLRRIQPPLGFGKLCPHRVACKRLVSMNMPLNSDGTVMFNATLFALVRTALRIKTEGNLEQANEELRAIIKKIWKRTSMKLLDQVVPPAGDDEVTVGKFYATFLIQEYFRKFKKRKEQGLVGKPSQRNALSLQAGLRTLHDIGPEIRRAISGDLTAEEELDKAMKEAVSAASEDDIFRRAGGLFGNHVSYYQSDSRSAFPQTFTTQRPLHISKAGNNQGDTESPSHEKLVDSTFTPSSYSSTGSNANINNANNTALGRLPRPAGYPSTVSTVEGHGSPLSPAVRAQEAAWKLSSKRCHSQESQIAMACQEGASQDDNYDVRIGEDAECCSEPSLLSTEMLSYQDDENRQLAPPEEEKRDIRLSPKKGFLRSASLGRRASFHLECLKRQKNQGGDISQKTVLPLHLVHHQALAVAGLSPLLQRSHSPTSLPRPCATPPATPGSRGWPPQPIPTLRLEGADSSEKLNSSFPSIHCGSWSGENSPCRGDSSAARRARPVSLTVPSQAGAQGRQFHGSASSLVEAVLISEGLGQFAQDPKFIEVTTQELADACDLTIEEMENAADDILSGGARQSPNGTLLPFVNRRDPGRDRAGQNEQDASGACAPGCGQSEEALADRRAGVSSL
T1 sequence (P13806 27-960 partner limits assumed, other chains not shown): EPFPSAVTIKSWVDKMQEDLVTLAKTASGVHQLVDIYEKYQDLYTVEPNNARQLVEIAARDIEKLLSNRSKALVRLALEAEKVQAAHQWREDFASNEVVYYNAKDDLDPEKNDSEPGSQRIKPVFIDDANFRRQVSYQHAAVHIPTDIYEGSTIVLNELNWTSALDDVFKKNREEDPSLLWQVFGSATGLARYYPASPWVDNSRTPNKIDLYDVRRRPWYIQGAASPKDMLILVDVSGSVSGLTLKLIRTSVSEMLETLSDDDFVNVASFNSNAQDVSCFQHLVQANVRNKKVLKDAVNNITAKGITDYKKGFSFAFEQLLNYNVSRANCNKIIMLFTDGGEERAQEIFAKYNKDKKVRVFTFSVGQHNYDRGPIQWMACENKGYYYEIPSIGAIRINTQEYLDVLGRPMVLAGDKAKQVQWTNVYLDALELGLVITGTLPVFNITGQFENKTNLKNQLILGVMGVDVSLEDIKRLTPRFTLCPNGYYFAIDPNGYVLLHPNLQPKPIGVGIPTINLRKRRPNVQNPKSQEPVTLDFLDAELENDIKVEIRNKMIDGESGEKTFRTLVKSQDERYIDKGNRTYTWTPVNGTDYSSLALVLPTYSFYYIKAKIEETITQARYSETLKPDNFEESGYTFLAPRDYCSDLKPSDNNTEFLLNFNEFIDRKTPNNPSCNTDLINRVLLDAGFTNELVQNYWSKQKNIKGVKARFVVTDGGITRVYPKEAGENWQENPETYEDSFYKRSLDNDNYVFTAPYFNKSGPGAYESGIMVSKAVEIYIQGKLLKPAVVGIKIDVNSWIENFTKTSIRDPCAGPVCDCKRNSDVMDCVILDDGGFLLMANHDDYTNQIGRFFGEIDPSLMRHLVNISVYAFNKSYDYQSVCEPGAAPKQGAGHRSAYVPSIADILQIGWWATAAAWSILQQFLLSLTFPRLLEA
T1 sequence (P13806 961-1106 partner limits assumed, other chains not shown): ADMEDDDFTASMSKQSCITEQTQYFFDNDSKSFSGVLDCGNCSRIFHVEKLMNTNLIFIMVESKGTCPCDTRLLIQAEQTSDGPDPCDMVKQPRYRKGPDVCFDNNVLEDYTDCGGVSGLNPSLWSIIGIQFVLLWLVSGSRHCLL

Compound | IC50
CC1=C(C(=O)OCCN(C)Cc2ccccc2)C(c2c(F)cccc2Cl)C2=C(COc3ccccc3S2(=O)=O)N1 (stereo not shown) [Compound 7, 1H-[1,5]Benzoxathiepino[3,4-b]pyridine-3-carboxylic acid, 4-(2-chloro-6-fluorophenyl)-4,11-dihydro-2-methyl-, 2-[methyl(phenylmethyl)amino]ethyl ester, 5,5-dioxide] | 0.047 µM
CC1=C(C(=O)OCCN(C)Cc2ccccc2)C(c2cccc([N+](=O)[O-])c2)C2=C(COc3ccccc3S2(=O)=O)N1 (stereo not shown) [Compound 4, 1H-[1,5]Benzoxathiepino[3,4-b]pyridine-3-carboxylic acid, 4,11-dihydro-2-methyl-4-(3-nitrophenyl)-, 2-[methyl(phenylmethyl)amino]ethyl ester, 5,5-dioxide] | 0.045 µM
CC1=C(C(=O)OCCN(C)Cc2ccccc2)C(c2cccc(Cl)c2Cl)C2=C(COc3ccccc3S2(=O)=O)N1 (stereo not shown) [Compound 6, 1H-[1,5]Benzoxathiepino[3,4-b]pyridine-3-carboxylic acid, 4-(2,3-dichlorophenyl)4,11-dihydro-2-methyl-, 2-[methyl(phenylmethyl)amino]ethyl ester, 5,5-dioxide] | 0.021 µM
CC1=C(C(=O)OCCN(C)Cc2ccccc2)C(c2ccccc2Cl)C2=C(COc3ccccc3S2(=O)=O)N1 (stereo not shown) [Compound 2, 1H-[1,5]Benzoxathiepino[3,4-b]pyridine-3-carboxylic acid, 4-(2-chlorophenyl)-4,11-dihydro-2-methyl-, 2-[methyl(phenylmethyl)amino]ethyl ester, 5,5-dioxide] | 0.059 µM
COC(=O)C1=C(C)NC2=C(C1c1cccc([N+](=O)[O-])c1)S(=O)(=O)c1ccccc1OC2 (stereo not shown) [Compound 3, 1H-[1,5]Benzoxathiepino[3,4-b]pyridine-3-carboxylic acid, 4,11-dihydro-2-methyl-4-(3-nitrophenyl)-, methyl ester, 5,5-dioxide] | 0.033 µM
COC(=O)C1=C(C)NC2=C(C1c1ccccc1Cl)S(=O)(=O)c1ccccc1OC2 (stereo not shown) [Compound 1, 1H-[1,5]Benzoxathiepino[3,4-b]pyridine-3-carboxylic acid, 4-(2-chlorophenyl)-4,11-dihydro-2-methyl-, methyl ester, 5,5-dioxide] | 0.061 µM
CC1=C(C(=O)OCCN(C)Cc2ccccc2)C(c2cccc(Cl)c2)C2=C(COc3ccccc3S2(=O)=O)N1 (stereo not shown) [Compound 5, 1H-[1,5]Benzoxathiepino[3,4-b]pyridine-3-carboxylic acid, 4-(3-chlorophenyl)-4,11-dihydro-2-methyl-, 2-[methyl(phenylmethyl)amino]ethyl ester, 5,5-dioxide] | 0.109 µM
